Source: ChEMBL document CHEMBL2021774, “Rapid development of piperidine carboxamides as potent and selective anaplastic lymphoma kinase inhibitors” (J Med Chem, 2012)

What was measured:
[1] = molecular target: Insulin-like growth factor 1 receptor (Homo sapiens, UniProt P08069)
[2] = molecular target: T1, ALK tyrosine kinase receptor (Homo sapiens, UniProt Q9UM73)
[3] = molecular target: T1, ALK tyrosine kinase receptor; remark: listed apart in the source
Description: Inhibition of ALK phosphorylation in human Karpas-299 cells after 1 hr

T1 sequence (Q9UM73 whole entry): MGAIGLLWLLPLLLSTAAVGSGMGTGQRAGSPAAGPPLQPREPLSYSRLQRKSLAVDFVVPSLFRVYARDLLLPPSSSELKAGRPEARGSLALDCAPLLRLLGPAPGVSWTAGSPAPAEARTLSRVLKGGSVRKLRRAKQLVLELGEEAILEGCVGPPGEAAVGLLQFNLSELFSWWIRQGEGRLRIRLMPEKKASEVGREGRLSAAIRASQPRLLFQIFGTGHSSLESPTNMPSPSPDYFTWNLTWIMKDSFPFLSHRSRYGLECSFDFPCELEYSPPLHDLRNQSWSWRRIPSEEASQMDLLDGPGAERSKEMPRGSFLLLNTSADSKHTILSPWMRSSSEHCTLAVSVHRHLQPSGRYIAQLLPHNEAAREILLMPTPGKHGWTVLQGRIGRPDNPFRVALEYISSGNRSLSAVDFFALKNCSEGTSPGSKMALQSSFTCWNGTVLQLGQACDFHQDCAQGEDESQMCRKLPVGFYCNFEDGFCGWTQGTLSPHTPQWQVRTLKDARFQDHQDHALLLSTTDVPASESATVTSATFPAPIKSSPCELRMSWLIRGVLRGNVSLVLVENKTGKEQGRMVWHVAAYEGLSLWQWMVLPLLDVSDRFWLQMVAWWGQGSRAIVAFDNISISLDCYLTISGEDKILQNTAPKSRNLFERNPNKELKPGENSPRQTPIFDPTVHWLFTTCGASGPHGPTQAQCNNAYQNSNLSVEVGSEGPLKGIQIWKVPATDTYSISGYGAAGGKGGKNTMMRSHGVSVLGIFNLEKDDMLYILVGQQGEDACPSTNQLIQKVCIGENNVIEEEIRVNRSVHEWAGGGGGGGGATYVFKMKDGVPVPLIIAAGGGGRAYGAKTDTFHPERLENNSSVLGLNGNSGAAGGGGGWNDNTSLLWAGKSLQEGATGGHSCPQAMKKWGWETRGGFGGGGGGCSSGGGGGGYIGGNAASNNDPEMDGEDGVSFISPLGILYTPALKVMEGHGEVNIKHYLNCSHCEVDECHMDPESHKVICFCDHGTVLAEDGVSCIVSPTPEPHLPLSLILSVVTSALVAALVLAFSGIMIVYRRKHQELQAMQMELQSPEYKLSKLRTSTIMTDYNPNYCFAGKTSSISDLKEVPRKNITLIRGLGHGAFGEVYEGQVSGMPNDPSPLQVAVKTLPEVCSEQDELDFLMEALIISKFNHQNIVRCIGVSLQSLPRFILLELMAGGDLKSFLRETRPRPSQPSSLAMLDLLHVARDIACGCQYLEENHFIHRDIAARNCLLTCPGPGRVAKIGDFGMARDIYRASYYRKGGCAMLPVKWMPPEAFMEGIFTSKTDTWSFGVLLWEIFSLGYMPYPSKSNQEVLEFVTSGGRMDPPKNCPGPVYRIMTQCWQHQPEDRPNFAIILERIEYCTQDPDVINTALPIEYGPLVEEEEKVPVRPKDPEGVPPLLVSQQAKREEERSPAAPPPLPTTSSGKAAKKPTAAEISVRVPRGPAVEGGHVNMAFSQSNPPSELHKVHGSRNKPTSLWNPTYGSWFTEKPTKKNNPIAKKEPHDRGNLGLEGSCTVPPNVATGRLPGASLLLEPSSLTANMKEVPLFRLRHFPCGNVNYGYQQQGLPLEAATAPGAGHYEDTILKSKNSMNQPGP
Sequence of Insulin-like growth factor 1 receptor (P08069 31-736 limits assumed): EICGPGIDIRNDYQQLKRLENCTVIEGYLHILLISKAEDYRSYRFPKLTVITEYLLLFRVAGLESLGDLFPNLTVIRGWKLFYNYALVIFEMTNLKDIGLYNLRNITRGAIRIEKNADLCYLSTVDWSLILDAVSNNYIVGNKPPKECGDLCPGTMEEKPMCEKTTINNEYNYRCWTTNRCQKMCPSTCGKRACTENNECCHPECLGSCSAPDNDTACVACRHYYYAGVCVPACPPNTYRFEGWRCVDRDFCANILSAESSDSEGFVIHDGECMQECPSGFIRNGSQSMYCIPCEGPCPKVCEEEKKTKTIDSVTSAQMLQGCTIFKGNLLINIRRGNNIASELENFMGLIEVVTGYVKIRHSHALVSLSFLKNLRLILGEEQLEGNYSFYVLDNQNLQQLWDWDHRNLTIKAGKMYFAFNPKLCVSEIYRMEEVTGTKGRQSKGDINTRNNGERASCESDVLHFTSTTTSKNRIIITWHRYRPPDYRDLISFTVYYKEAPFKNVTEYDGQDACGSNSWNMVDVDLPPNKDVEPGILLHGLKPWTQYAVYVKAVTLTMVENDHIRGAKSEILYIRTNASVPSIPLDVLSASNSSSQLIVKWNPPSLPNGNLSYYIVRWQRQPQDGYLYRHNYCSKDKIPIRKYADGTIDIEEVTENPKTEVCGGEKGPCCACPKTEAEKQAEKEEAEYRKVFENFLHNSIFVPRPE
Sequence of Insulin-like growth factor 1 receptor (P08069 741-1367 limits assumed): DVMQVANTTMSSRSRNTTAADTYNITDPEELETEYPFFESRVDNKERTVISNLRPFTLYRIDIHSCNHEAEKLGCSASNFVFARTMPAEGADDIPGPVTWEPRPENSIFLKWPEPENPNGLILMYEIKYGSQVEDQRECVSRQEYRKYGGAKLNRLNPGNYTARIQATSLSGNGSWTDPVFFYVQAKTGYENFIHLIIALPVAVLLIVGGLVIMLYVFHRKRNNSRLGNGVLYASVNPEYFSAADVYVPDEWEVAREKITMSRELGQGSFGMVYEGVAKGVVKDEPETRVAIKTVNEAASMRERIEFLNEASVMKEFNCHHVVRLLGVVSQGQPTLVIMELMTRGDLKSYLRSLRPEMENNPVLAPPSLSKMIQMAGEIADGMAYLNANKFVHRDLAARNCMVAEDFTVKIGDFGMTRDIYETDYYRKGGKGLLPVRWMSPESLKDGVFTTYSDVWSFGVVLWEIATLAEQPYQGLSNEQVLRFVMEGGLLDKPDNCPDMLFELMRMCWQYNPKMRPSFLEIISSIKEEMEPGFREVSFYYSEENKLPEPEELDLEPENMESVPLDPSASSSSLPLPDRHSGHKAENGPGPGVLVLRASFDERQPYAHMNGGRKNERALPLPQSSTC

Row | SMILES | IC50 [1] [µM] | IC50 [2] [µM] | IC50 [3] [µM]
1 | COc1cc(Nc2nccc(N3CCC[C@H](C(=O)NCc4ccc(C)cc4)C3)n2)cc(OC)c1OC | 4.61 | – | –
2 | CNc1nccc(N2CCC[C@H](C(=O)NCc3ccc(C)cc3)C2)n1 | > 25 | > 25 | –
3 | Cc1ccc(CNC(=O)[C@H]2CCCN(c3ccnc(Nc4ccccc4)n3)C2)cc1 | > 25 | – | –
4 | Cc1ccc(CNC(=O)[C@H]2CCCN(c3ccnc(NCc4ccccc4)n3)C2)cc1 | > 25 | > 25 | –
5 | Cc1ccc(CNC(=O)[C@H]2CCCN(c3ccnc(Nc4cccc(Cl)c4)n3)C2)cc1 | > 25 | – | –
6 | Cc1ccc(CNC(=O)[C@H]2CCCN(c3ccnc(Nc4ccc(Cl)cc4)n3)C2)cc1 | > 25 | 6.3 | –
7 | COc1ccc(Nc2nccc(N3CCC[C@H](C(=O)NCc4ccc(C)cc4)C3)n2)cc1 | > 25 | – | –
8 | CCc1cccc(Nc2nccc(N3CCC[C@H](C(=O)NCc4ccc(C)cc4)C3)n2)c1 | > 25 | – | –
9 | CCc1ccc(Nc2nccc(N3CCC[C@H](C(=O)NCc4ccc(C)cc4)C3)n2)cc1 | > 25 | – | –
10 | COc1ccc(Nc2nccc(N3CCC[C@H](C(=O)NCc4ccc(C)cc4)C3)n2)cc1OC | > 25 | – | –
11 | Cc1ccc(CNC(=O)[C@H]2CCCN(c3ccnc(Nc4ccc5c(c4)OCCO5)n3)C2)cc1 | > 25 | – | –
12 | COc1cc(Nc2nccc(N3CCC[C@H](C(=O)NCCc4ccccc4)C3)n2)cc(OC)c1OC | > 25 | – | –
13 | COc1cc(Nc2nccc(N3CCC[C@H](C(=O)NCCCc4ccccc4)C3)n2)cc(OC)c1OC | – | 6.71 | –
14 | COc1cc(Nc2nccc(N3CCC[C@H](C(=O)NCc4ccc([N+](=O)[O-])cc4)C3)n2)cc(OC)c1OC | > 25 | 2.93 | –
15 | COC(=O)c1ccc(CNC(=O)[C@H]2CCCN(c3ccnc(Nc4cc(OC)c(OC)c(OC)c4)n3)C2)cc1 | > 25 | – | –
16 | COc1cc(Nc2nccc(N3CCC[C@H](C(=O)NCc4ccc(-c5ccccc5)cc4)C3)n2)cc(OC)c1OC | > 25 | – | –
17 | COc1cc(Nc2nccc(N3CCC[C@H](C(=O)NCc4cccc(N5CCOCC5)c4)C3)n2)cc(OC)c1OC | – | 0.031 | 0.028
18 | COc1cc(Nc2nccc(N3CCC[C@@H](C(=O)NCc4ccc(C)cc4)C3)n2)cc(OC)c1OC | > 25 | – | –
